Measurements reported in the NIST ThermoML archive (doi:10.1016/j.fluid.2019.05.003).

Assay: xn = mol fraction of the nth substance listed
Details: 101 kPa, Liquid; for viscosity: Falling or rolling sphere viscometry; for mass density: Vibrating tube method

C[N+]1(CCO)CCOCC1.[Br-] [N-methyl-N-(2-hydroxyethyl)morpholinium bromide] + O
Details	mass density [kg/m3]	viscosity [mPa·s]
298.15 K, x1 = 0.023	1078.7	1.173
298.15 K, x1 = 0.038	1121	1.482
298.15 K, x1 = 0.051	1150.9	1.716
298.15 K, x1 = 0.075	1197.8	2.345
298.15 K, x1 = 0.097	1232	3.195
298.15 K, x1 = 0.124	1264.8	4.717
298.15 K, x1 = 0.157	1297.5	7.331
298.15 K, x1 = 0.197	1328.8	14.15
298.15 K, x1 = 0.227	1345.7	20.61
303.15 K, x1 = 0.023	1076.7	1.058
303.15 K, x1 = 0.038	1118.8	1.33
303.15 K, x1 = 0.051	1148.6	1.536
303.15 K, x1 = 0.075	1195.3	2.087
303.15 K, x1 = 0.097	1229.3	2.831
303.15 K, x1 = 0.124	1262	4.126
303.15 K, x1 = 0.157	1294.6	6.314
303.15 K, x1 = 0.197	1325.9	12.14
303.15 K, x1 = 0.227	1342.8	17.39
308.15 K, x1 = 0.023	1074.6	0.962
308.15 K, x1 = 0.038	1116.5	1.206
308.15 K, x1 = 0.051	1146.2	1.385
308.15 K, x1 = 0.075	1192.7	1.878
308.15 K, x1 = 0.097	1226.6	2.526
308.15 K, x1 = 0.124	1259.2	3.653
308.15 K, x1 = 0.157	1291.7	5.635
308.15 K, x1 = 0.197	1322.9	10.46
308.15 K, x1 = 0.227	1339.7	14.76
313.15 K, x1 = 0.023	1072.3	0.88
313.15 K, x1 = 0.038	1114.1	1.101
313.15 K, x1 = 0.051	1143.6	1.26
313.15 K, x1 = 0.075	1190	1.7
313.15 K, x1 = 0.097	1223.8	2.278
313.15 K, x1 = 0.124	1256.4	3.255
313.15 K, x1 = 0.157	1288.8	4.938
313.15 K, x1 = 0.197	1319.9	9.042
313.15 K, x1 = 0.227	1336.7	12.6
318.15 K, x1 = 0.023	1069.8	0.81
318.15 K, x1 = 0.038	1111.6	1.011
318.15 K, x1 = 0.051	1141	1.154
318.15 K, x1 = 0.075	1187.3	1.547
318.15 K, x1 = 0.097	1221	2.062
318.15 K, x1 = 0.124	1253.5	2.921
318.15 K, x1 = 0.157	1285.8	4.371
318.15 K, x1 = 0.197	1316.9	7.869
318.15 K, x1 = 0.227	1333.7	10.85
323.15 K, x1 = 0.023	1066.9	0.754
323.15 K, x1 = 0.038	1109	0.933
323.15 K, x1 = 0.051	1138.2	1.061
323.15 K, x1 = 0.075	1184.5	1.416
323.15 K, x1 = 0.097	1218.1	1.88
323.15 K, x1 = 0.124	1250.5	2.641
323.15 K, x1 = 0.157	1282.8	3.899
323.15 K, x1 = 0.197	1313.9	6.877
323.15 K, x1 = 0.227	1330.6	9.429
328.15 K, x1 = 0.023	1064.7	0.703
328.15 K, x1 = 0.038	1106.2	0.871
328.15 K, x1 = 0.051	1135.9	0.982
328.15 K, x1 = 0.075	1181.6	1.305
328.15 K, x1 = 0.097	1215.1	1.718
328.15 K, x1 = 0.124	1247.6	2.4
328.15 K, x1 = 0.157	1279.8	3.505
328.15 K, x1 = 0.197	1310.7	6.095
328.15 K, x1 = 0.227	1327.5	8.272
333.15 K, x1 = 0.023	1062.5	0.656
333.15 K, x1 = 0.038	1103.3	0.807
333.15 K, x1 = 0.051	1133.3	0.913
333.15 K, x1 = 0.075	1178.7	1.201
333.15 K, x1 = 0.097	1212.1	1.581
333.15 K, x1 = 0.124	1244.5	2.186
333.15 K, x1 = 0.157	1276.7	3.163
333.15 K, x1 = 0.197	1307.8	5.346
333.15 K, x1 = 0.227	1324.2	7.316
338.15 K, x1 = 0.023	1060.1	0.632
338.15 K, x1 = 0.038	1101.2	0.756
338.15 K, x1 = 0.051	1130.8	0.849
338.15 K, x1 = 0.075	1175.6	1.135
338.15 K, x1 = 0.097	1209.5	1.453
338.15 K, x1 = 0.124	1241.5	2.007
338.15 K, x1 = 0.157	1273.5	2.854
338.15 K, x1 = 0.197	1304.7	4.811
338.15 K, x1 = 0.227	1321.1	6.504
343.15 K, x1 = 0.023	1057.7	0.596
343.15 K, x1 = 0.038	1098.7	0.716
343.15 K, x1 = 0.051	1128.3	0.796
343.15 K, x1 = 0.075	1173.2	1.055
343.15 K, x1 = 0.097	1206.6	1.339
343.15 K, x1 = 0.124	1238.3	1.873
343.15 K, x1 = 0.157	1270.4	2.621
343.15 K, x1 = 0.197	1301.5	4.333
343.15 K, x1 = 0.227	1317.9	5.834
348.15 K, x1 = 0.023	1055.3	0.561
348.15 K, x1 = 0.038	1096.2	0.675
348.15 K, x1 = 0.051	1125.7	0.749
348.15 K, x1 = 0.075	1170.4	0.996
348.15 K, x1 = 0.097	1203.8	1.259
348.15 K, x1 = 0.124	1235.2	1.719
348.15 K, x1 = 0.157	1267.6	2.407
348.15 K, x1 = 0.197	1298.3	3.882
348.15 K, x1 = 0.227	1315.1	5.243
